Drawing on US11708357B2, “Crystal form of pyrrolidinyl urea derivative and application thereof” (ZHANGZHOU PIEN TZE HUANG PHARMACEUTICAL CO., LTD., priority 2020, dated 2023), this text covers IC50 and CLint scaled for one molecule.

One data set has as its target T1, TrkA (Homo sapiens, UniProt P04629).
T1 construct: purchased Invitrogen PV4114
As to the kind of experiment: TrkA enzyme activity test (HTRF). Particulars: 0.5 nM TrkA kinase, 90 μM ATP, 23° C. 90 minutes. Format: biochemical. As to the method: TK detection kit Cisbio-62TK0PEJ
50 mM Hepes (pH 7.5), 5 mM MgCl2 (magnesium chloride), 0.01 mM orthovanadate (sodium vanadate), 1% BSA (bovine serum albumin), 1 mM (dithiothreitol)
This experiment used Cisbio's homogeneous time-resolved fluorescence resonance energy transfer (HTRF® method) for activity test. In the test plate, the enzyme, biotin-labeled peptide substrate, ATP, and test compound were mixed, and incubated for reaction. After the reaction, ethylenediaminetetraacetic acid was added to terminate the reaction; at the same time, Eu-labeled antibody and streptavidin-labeled XL665 were added for reaction and detection. The data were expressed by the readings of the fluorescence signal at 665 nm and 620 nm, where a high ratio of 665 nm/620 nm indicated higher activity, and a low ratio of 665 nm/620 nm indicated inhibition of activity.
1. […]
2. […] 10 μL of stop solution containing 20 mM EDTA, 1.34 nM phosphorylated substrate antibody, and 100 nM streptavidin-labeled fluorescent molecule XL-665 was then added, incubated at 23° C. for 60 minutes; the signal was read with Envision;
3. The inhibition rate of the compound was calculated from the data read by the instrument, and the IC50 value was calculated using the mode 205 in XLFIT5 of IDBS.
(Time-resolved FRET reads energy transfer from a long-lived donor to a nearby acceptor.)

A short description of data set [1]: Metabolic stability in human liver microsomes. Format: in vitro ADME. Particulars: pH 7.4, 0.5 mg protein/mL, read-out: Intrinsic clearance rate of liver microsomes, Human. As to the method: The metabolic stability of the test compound in human and rat liver microsomes was tested.
Test compound (10 mM), Testosterone (reference compound, 10 mM), Diclofenac (reference compound, 10 mM) and Propafenone (reference compound, 10 mM).
1. 100 mM potassium phosphate buffer (pH 7.4).
1. Intermediate solution: 45 μL of DMSO (with 450 μL of 1:1 methanol/water) was used to dilute 5 μL of the sample for test compound or reference compound.
2. Working solution: 450 μL of 100 mM potassium phosphate buffer was used to dilute the intermediate solution.
10 μL of the working solution of the test compound or reference compound was added to all plates (T0, T5, T10, T20, T30, T60, and NCF60).
680 μL of liver microsome solution was added to each well of 96-well plates, then 80 μL was added to each well of the plates, and the plates were placed at 37° C. for pre-incubation for approximately 10 minutes.
10 μL of 100 mM potassium phosphate buffer was added to each well of the NCF60 plate.
After the pre-incubation, 90 μL NADPH regeneration system working solution was added to each well of the 96-well plates, and then 10 μL was added to each well of the plates to initiate the reaction.
Incubation for an appropriate time (such as 5, 10, 20, 30, and 60 minutes). […]
The half-life T1/2 and the intrinsic clearance rate by liver microsome Clint(mic) were calculated by the following formulas: Ct=Cij·e^−k^s^·i • when […]

For another data set, the target named is T2, CYP2C9 (Homo sapiens, UniProt P11712).
T2 construct: from tissue; host or cells: human liver microsomes
The data set is described as follows: Cytochrome P450 isozyme inhibitory activity test, CYP2C9. The format is in vitro ADME. The conditions noted are these: liver microsomes; human liver microsome. As to the method: The inhibitory activities of the test compound on different subtypes of human cytochrome P450 isozymes were determined. The test compound, standard inhibitor (100× final concentration), and a mixed substrate working solution were prepared; the microsome frozen in −80° C. refrigerator was thawed. […]
(In general: Liver microsomes are a subcellular fraction often used to study metabolism.)

T2 sequence (P11712 whole entry): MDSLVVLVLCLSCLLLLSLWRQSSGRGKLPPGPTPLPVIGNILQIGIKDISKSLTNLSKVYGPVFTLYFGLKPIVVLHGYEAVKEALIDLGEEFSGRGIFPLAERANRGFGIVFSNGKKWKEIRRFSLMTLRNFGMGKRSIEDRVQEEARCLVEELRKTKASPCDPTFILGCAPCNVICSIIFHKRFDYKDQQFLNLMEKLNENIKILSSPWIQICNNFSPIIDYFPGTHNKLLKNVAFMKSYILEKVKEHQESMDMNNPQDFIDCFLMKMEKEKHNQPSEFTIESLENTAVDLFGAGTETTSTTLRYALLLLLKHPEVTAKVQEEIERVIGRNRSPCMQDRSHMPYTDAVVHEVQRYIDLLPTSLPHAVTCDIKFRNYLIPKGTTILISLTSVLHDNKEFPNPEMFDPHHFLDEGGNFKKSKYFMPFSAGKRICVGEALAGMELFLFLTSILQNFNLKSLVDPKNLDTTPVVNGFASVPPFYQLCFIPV
T1 sequence (P04629 33-796): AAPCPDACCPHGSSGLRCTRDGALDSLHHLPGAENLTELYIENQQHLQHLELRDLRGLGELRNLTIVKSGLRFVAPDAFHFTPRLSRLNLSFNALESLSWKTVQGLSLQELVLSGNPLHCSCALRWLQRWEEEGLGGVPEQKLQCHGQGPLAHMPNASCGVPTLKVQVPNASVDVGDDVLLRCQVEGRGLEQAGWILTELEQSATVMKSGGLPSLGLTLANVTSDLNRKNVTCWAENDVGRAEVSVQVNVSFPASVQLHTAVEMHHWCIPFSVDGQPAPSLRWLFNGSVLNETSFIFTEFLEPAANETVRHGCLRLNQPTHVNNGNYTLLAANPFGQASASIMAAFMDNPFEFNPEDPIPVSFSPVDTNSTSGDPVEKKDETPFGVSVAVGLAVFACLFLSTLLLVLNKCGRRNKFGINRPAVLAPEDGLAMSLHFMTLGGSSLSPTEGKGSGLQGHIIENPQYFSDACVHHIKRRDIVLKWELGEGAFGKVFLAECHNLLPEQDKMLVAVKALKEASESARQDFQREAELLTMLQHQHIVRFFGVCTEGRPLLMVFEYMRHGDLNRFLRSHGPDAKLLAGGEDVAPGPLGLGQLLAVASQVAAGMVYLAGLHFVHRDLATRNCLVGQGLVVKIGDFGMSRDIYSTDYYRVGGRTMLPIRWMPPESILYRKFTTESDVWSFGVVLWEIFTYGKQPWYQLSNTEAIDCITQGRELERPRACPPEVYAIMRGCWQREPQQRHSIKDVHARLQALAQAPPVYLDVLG

As a reminder, the IC50 is the concentration needed to halve the response being measured. Read a low IC50 as higher potency. For `COCCN1C[C@@H](n2ccc(F)c2)[C@H](NC(=O)Nc2c(C)c(-c3cnc(C4(F)COC4)nc3)nn2-c2ccccc2)C1` [Compound of formula (I)], the half-inhibitory concentration (IC50) on TrkA stood at 0.56 nM. For the same molecule, in data set [1], the CLint scaled stood at 51.7 mL/min/kg. This molecule had an IC50 at 10 min against CYP2C9 of 39.1 µM.
